Our source for the IC50 values is patent US20240246967A1, “AXL COMPOUNDS” (ARCUS BIOSCIENCES, INC., priority 2021, published 2024).

Molecules are shown by their SMILES.

The target of one assay is T1, Axl (Homo sapiens, UniProt P30530).
T1 sequence (P30530 26-894): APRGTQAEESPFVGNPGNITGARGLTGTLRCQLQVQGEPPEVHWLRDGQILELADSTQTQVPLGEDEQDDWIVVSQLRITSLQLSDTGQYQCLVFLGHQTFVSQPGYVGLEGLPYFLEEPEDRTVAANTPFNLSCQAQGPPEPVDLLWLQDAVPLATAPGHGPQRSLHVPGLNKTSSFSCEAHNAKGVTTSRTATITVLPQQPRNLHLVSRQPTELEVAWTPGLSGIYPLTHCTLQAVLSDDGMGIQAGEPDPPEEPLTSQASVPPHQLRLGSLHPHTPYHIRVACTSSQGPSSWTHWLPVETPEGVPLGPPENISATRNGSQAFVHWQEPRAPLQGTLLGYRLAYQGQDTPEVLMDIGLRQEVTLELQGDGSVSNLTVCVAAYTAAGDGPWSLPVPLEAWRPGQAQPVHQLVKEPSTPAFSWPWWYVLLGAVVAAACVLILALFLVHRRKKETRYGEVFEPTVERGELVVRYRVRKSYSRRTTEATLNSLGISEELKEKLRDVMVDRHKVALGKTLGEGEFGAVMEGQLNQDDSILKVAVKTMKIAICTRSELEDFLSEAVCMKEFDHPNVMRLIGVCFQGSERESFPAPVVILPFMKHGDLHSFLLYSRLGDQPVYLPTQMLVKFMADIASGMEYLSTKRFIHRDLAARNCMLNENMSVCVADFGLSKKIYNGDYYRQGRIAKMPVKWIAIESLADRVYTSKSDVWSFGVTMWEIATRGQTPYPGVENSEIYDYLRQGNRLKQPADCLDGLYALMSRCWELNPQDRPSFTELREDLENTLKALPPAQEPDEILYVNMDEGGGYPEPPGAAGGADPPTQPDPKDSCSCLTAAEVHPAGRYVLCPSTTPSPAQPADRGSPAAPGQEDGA
The experiment in a line: HTRF KinEASE-TK biochemical potency assay, AXL. More on the design: purchased Invitrogen. The settings on record: 5 nM AXL, 700 μM ATP, 800 nM TK Substrate-biotin. The gist of the method: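 Recombinant human kinase preincubated 1 h at RT with compound, then reacted 2 h at RT with final 5 nM AXL or 1 nM TYRO3/MER, 800 nM TK Substrate-biotin and 700 μM ATP in HEPES pH 7.4, 10 mM MgCl2, 1% DMSO. Phosphorylation read by HTRF 665/620 ratio, expressed as percent activity.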

For another assay, the target named is T2, human MER (Homo sapiens, UniProt Q12866).
T2 construct: purchased Invitrogen
T2 sequence (Q12866 21-999): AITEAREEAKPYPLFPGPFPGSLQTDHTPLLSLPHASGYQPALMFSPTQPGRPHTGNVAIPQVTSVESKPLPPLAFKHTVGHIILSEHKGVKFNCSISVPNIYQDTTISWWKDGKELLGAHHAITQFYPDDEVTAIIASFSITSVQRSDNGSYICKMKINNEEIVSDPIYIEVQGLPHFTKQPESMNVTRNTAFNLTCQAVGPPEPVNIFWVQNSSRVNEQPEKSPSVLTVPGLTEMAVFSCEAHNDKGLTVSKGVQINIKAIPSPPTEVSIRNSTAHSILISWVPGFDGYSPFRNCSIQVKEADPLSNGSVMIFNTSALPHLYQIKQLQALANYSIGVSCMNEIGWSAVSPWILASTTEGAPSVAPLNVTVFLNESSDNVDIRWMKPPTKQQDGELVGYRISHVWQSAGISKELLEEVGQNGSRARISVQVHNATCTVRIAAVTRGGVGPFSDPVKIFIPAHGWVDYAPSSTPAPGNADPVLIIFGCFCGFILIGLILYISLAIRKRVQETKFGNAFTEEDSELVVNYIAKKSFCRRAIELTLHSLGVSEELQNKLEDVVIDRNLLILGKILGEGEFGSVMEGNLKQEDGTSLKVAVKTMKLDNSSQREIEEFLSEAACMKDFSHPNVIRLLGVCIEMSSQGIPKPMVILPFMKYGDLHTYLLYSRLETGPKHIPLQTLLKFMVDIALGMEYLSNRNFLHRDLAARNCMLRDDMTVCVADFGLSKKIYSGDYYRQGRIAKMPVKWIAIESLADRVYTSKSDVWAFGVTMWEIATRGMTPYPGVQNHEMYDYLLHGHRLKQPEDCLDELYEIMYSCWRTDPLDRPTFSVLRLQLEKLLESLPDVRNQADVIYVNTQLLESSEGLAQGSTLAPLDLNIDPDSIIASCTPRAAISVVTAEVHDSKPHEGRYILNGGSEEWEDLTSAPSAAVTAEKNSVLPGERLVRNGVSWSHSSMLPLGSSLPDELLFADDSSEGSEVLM
The experiment in a line: HTRF KinEASE-TK biochemical potency assay, MER. The settings on record: 1 nM MER, 700 μM ATP, 800 nM TK Substrate-biotin. Here is the method:
Purified recombinant human AXL, TYRO3 and MER proteins were purchased from Invitrogen™. 10 nM AXL, 2 nM TYRO3 or MER were incubated with varying concentrations of compounds in 50 mM HEPES, pH 7.4, 10 mM MgCl2, 0.01% BSA, 1 mM DTT and 2% DMSO in a total volume of 20 μl in a 384-well microplate (Corning™ #3640) at RT for 1 h. The AXL, TYRO3 and MER enzymatic reaction was initiated by transferring 10 μl of enzyme and compound mixture into 10 μl of 1.6 μM TK Substrate-biotin (HTRF® KinEASE-TK kit, Cisbio) and 1400 μM ATP pre-incubated in 50 mM HEPES, pH 7.4, 10 mM MgCl2, 0.01% BSA, 1 mM DTT in a 384-well microplate (Corning™ #3640) at RT, giving the final reaction conditions: 5 nM AXL, 1 nM TYRO3 or MER, 800 nM TK Substrate-biotin and 700 μM ATP in 50 mM HEPES, pH 7.4, 10 mM MgCl2, 0.01% BSA, 1 mM DTT and 1% DMSO with varying concentrations of compounds. Following 2 h incubation at RT, the AXL, TYRO3 and MER enzymatic reaction was stopped by transfer of 10 μl of reaction into 10 μl of detection mix (400 nM Streptavidin-XL665, 200-fold dilution TK Antibody-Cryptate and detection buffer, HTRF® KinEASE-TK kit, Cisbio) in a white 384-well microplate (Perkin Elmer, OptiPlate 384). After 1 h incubation at RT, the plate was put into a plate reader (Evision) to read at 665/620 nm (acceptor/donor) for HTRF. The value of the DMSO blank (MIN inhibition=100% activity) was used as a negative control. The positive control was established by adding 5 μl of enzyme and DMSO mixture into 10 μl of detection mix followed by addition of 5 μl of TK Substrate-biotin and ATP mixture (MAX inhibition=0% activity). To calculate the percent activity, Equation 1 was used. Ratio 665/620 is the value at a given compound concentration: […]
On the technique in general: In TR-FRET formats the signal depends on donor and acceptor labels being close together.

`O=S(=O)(c1ccc(-c2n[nH]c3ncc(-c4ccc5c(c4)CC[C@@H](N4CCCC4)CC5)cc23)cc1)C1CC1` [Example 40, (S)-3-(4-(Cyclopropylsulfonyl)phenyl)-5-(7-(pyrrolidin-1-yl)-6,7,8,9-tetrahydro-5H-benzo[7]annulen-2-yl)-1H-pyrazolo[3,4-b]pyridine]: the half-inhibitory concentration (IC50) – broadly, the point on the concentration scale where inhibition reaches its midpoint – against Axl is < 0.1 µM; on human MER, 0.1 to 1 µM.
With `CCS(=O)(=O)c1ccc(-c2n[nH]c3ncc(-c4ccc5c(c4)CC[C@@H](N4CCCC4)CC5)cc23)cc1` [Example 41, (S)-3-(4-(Ethylsulfonyl)phenyl)-5-(7-(pyrrolidin-1-yl)-6,7,8,9-tetrahydro-5H-benzo[7]annulen-2-yl)-1H-pyrazolo[3,4-b]pyridine], the IC50 is < 0.1 µM at Axl and 0.1 to 1 µM at human MER.
With `CC(C)S(=O)(=O)c1ccc(-c2n[nH]c3ncc(-c4ccc5c(c4)CC[C@@H](N4CCCC4)CC5)cc23)cc1` [Example 42, (S)-3-(4-(Isopropylsulfonyl)phenyl)-5-(7-(pyrrolidin-1-yl)-6,7,8,9-tetrahydro-5H-benzo[7]annulen-2-yl)-1H-pyrazolo[3,4-b]pyridine], the 50% inhibitory concentration (IC50) against Axl was < 0.1 µM; against human MER, 0.1 to 1 µM.
The matching figures for `C[C@@H]1CCCN1C1(C)CCc2ccc(-c3cnc4[nH]nc(-c5ccc(S(=O)(=O)C6CCCC6)cc5)c4c3)cc2CC1` (stereo partly drawn) [Example 45, 3-(4-(Cyclopentylsulfonyl)phenyl)-5-(7-methyl-7-((R)-2-methylpyrrolidin-1-yl)-6,7,8,9-tetrahydro-5H-benzo[7]annulen-2-yl)-1H-pyrazolo[3,4-b]pyridine]: < 0.1 µM and > 1 µM.
For the molecule `C[C@@H]1CCCN1C1(C)CCc2ccc(-c3cnc4[nH]nc(-c5ccc(S(=O)(=O)C6CCC6)cc5)c4c3)cc2CC1` (stereo partly drawn) [Example 46, 3-(4-(Cyclobutylsulfonyl)phenyl)-5-(7-methyl-7-((R)-2-methylpyrrolidin-1-yl)-6,7,8,9-tetrahydro-5H-benzo[7]annulen-2-yl)-1H-pyrazolo[3,4-b]pyridine], the half-maximal inhibitory concentration (IC50) was < 0.1 µM against Axl and 0.1 to 1 µM against human MER.
The matching figures for `Cc1cc(-c2n[nH]c3ncc(-c4ccc5c(c4)CCC(N4CCCC4)CC5)cc23)ccc1C(=O)N1CCNCC1` (centres unmarked) [Example 47, 1-(2-Methyl-4-{5-[7-(pyrrolidin-1-yl)-6,7,8,9-tetrahydro-5H-benzo[7]annulen-2-yl]-1H-pyrazolo[3,4-b]pyridin-3-yl}benzoyl)piperazine]: < 0.1 µM and 0.1 to 1 µM.
For `Cc1cc(-c2n[nH]c3ncc(-c4ccc5c(c4)CCN(C(=O)C(C)C)CC5)cc23)ccc1C(=O)N1CCNCC1` [Example 48, 2-Methyl-1-(7-{3-[3-methyl-4-(piperazine-1-carbonyl)phenyl]-1H-pyrazolo[3,4-b]pyridin-5-yl}-2,3,4,5-tetrahydro-1H-3-benzazepin-3-yl)propan-1-one], the figures for the IC50 on Axl and against human MER were < 0.1 µM and > 1 µM, respectively.
The matching figures for `Cc1cc(-c2n[nH]c3ncc(-c4ccc5c(c4)CC[C@@H](N4CCCC4)CC5)cc23)cc(C)c1C(N)=O` [Example 49, 2,6-Dimethyl-4-{5-[(7S)-7-(pyrrolidin-1-yl)-6,7,8,9-tetrahydro-5H-benzo[7]annulen-2-yl]-1H-pyrazolo[3,4-b]pyridin-3-yl}benzamide]: < 0.1 µM and 0.1 to 1 µM.
The matching figures for `Cc1cc(-c2n[nH]c3ncc(-c4ccc5c(c4)CC[C@@H](N4CCCC4)CC5)cc23)cc(Cl)c1C(N)=O` [Example 50, 2-Chloro-6-methyl-4-{5-[(7S)-7-(pyrrolidin-1-yl)-6,7,8,9-tetrahydro-5H-benzo[7]annulen-2-yl]-1H-pyrazolo[3,4-b]pyridin-3-yl}benzamide]: < 0.1 µM and < 0.1 µM.
For `C[C@@H]1CCCN1C1(C)CCc2ccc(-c3cnc4[nH]nc(-c5ccc(C(N)=O)c(F)c5)c4c3)cc2CC1` (stereo partly drawn) [Example 52, 2-Fluoro-4-(5-(7-methyl-7-((R)-2-methylpyrrolidin-1-yl)-6,7,8,9-tetrahydro-5H-benzo[7]annulen-2-yl)-1H-pyrazolo[3,4-b]pyridin-3-yl)benzamide], the results for the 50% inhibitory concentration (IC50) against Axl and against human MER were < 0.1 µM and 0.1 to 1 µM, respectively.
